Source: the supplement of paper PMC10307832

Columns and labels:
Experiment in all cases: relative viability (nuclei count vs DMSO), 5 days (fraction); higher = more cells survive
MK-2206 = compound: NC1(c2ccc(-c3nc4ccn5c(=O)[nH]nc5c4cc3-c3ccccc3)cc2)CCC1 [MK-2206]
Method in brief: (§1)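 In 1536-well plates, lung cancer cell lines rested overnight at 37 °C before five library-drug doses (not always all listed), √10 apart, were pinned onto vehicle-anchored plates. Nuclei were counted with MetaXpress from 4× Hoechst images taken after 5 days without medium change. Viability compares treated-well with vehicle-well nuclei as a median over plates, and plates needed control CV below 25% plus at least one doubling to pass.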

Pictilisib = compound: CS(=O)(=O)N1CCN(Cc2cc3nc(-c4cccc5[nH]ncc45)nc(N4CCOCC4)c3s2)CC1 [Pictilisib]
Method in brief: as §1

Pictilisib + OSI-027 = compound: CS(=O)(=O)N1CCN(Cc2cc3nc(-c4cccc5[nH]ncc45)nc(N4CCOCC4)c3s2)CC1 [Pictilisib] + COc1cccc2cc(-c3nc([C@H]4CC[C@H](C(=O)O)CC4)n4ncnc(N)c34)[nH]c12 [OSI-027] (partner 0.5 µM)
Method in brief: (§2)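 Five library-drug doses in √10 steps were combined with a fixed anchor-drug dose, or a single drug was given alone, by pin tool to lung cancer cell lines in 1536-well plates the day after seeding. Nuclei were stained and counted after 5 days. Relative viability is the nuclei count in treated wells over that in vehicle wells, taken as the median of duplicate plates.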

Pictilisib + Luminespib = compound: CS(=O)(=O)N1CCN(Cc2cc3nc(-c4cccc5[nH]ncc45)nc(N4CCOCC4)c3s2)CC1 [Pictilisib] + CCNC(=O)c1noc(-c2cc(C(C)C)c(O)cc2O)c1-c1ccc(CN2CCOCC2)cc1 [Luminespib] (partner 0.01 µM)
Method in brief: as §2

Cell Line	relative viability (MK-2206; 0.01 µM)	relative viability (MK-2206; 0.03162 µM)	relative viability (MK-2206; 0.3162 µM)	relative viability (MK-2206; 1 µM)	relative viability (Pictilisib; 0.02 µM)	relative viability (Pictilisib; 0.06325 µM)	relative viability (Pictilisib; 0.6325 µM)	relative viability (Pictilisib; 1 µM, anchor plate)	relative viability (Pictilisib; 2 µM)	relative viability (Pictilisib + OSI-027; first compound 0.02 µM)	relative viability (Pictilisib + OSI-027; first compound 0.06325 µM)	relative viability (Pictilisib + OSI-027; first compound 0.6325 µM)	relative viability (Pictilisib + OSI-027; first compound 2 µM)	relative viability (Pictilisib + Luminespib; first compound 0.02 µM)	relative viability (Pictilisib + Luminespib; first compound 0.06325 µM)	relative viability (Pictilisib + Luminespib; first compound 0.6325 µM)	relative viability (Pictilisib + Luminespib; first compound 2 µM)
COR-L 105	0.854	0.958	0.934	0.801	1.1	0.974	0.871	0.391	0.555	0.735	0.629	0.472	0.28	0.987	0.803	0.715	0.466
RERF-LC-KJ	0.943	0.997	0.854	0.919	0.974	0.944	0.807	0.565	0.575	0.531	0.559	0.402	0.371	1.23	1.29	1	0.855
NCI-H1793	0.979	1.04	0.887	0.743	0.864	0.956	0.539	0.343	0.359	0.255	0.236	0.185	0.149	0.152	0.189	0.152	0.168
CAL-12T	0.939	1.06	1.07	0.953	1.12	1.12	1.03	0.475	0.589	0.8	0.642	0.339	0.167	0.452	0.249	0.339	0.143
NCI-H1993	0.907	0.987	0.737	0.618	0.94	0.869	0.639	0.766	0.674	0.514	0.47	0.592	0.646	0.73	0.634	0.55	0.523
LXF-289	0.995	1.07	1.03	1.09	0.996	1.01	1.08	0.814	0.92	0.817	0.827	0.566	0.397	0.687	0.514	0.78	0.344
NCI-H1792	0.941	0.869	0.971	0.677	0.762	1.1	0.618	0.31	0.236	0.752	0.617	0.335	0.173	0.366	0.41	0.25	0.225
LU99A	1.01	1.07	0.961	1.02	1.01	0.971	0.794	0.327	0.425	0.286	0.262	0.263	0.214	0.254	0.228	0.251	0.204
SW 1573	0.997	1.03	0.773	0.782	0.966	0.958	0.768	0.487	0.403	0.615	0.584	0.362	0.237	0.185	0.196	0.187	0.189
